Reference: patent US5288730A, “Azabicyclic compounds, pharmaceutical compositions containing them and their use in therapy” (Merck Sharp & Dohme Limited, priority 1991, dated 1994)
Structures can show the parent of a compound that is named as a salt.

Target: T1, human neurokinin-1-receptor (NK1R) (Homo sapiens, UniProt P25103)
T1 construct: expressed in transfected cells
Test: Substance P antagonism assay: 125I-substance P binding to human NK1R expressed in COS or CHO cells
Settings: 125I-substance P displacement, 4° C. or room temperature, 1 hour
Method: To express the cloned human neurokinin-1-receptor (NK1R) transiently in COS, the cDNA for the human NK1R was cloned into the expression vector pCDM9 which was derived from pCDM8 (INVITROGEN) by inserting the ampicillin resistance gene (nucleotide 1973 to 2964 from BLUESCRIPT SK+ (trademark, STRATAGENE, La Jolla, Calif., USA)) into the Sac II site. Transfection of 20 ug of the plasmid DNA into 10 million COS cells was achieved by electroporation in 800 μof transfection buffer (135 mM NaCl, 1.2 mM CaCl2, 1.2 mM MgCl2 2.4 mM K2 HPO4, 0.6 mM KH2 PO4, 10 mM glucose, 10 mM N-2-hydroxyethyl-piperazine-N'-2-ethane sulphonic acid (HEPES) pH 7.4) at 260 V and 950 μusing the IBI GENEZAPPER (trademark IBI, New Haven, Conn., USA). The cells were incubated in 10% fetal calf serum, 2 mM glutamine, 100 U/ml penicillin-streptomycin, and 90% DMEM media (GIBCO, Grand Island, N.Y., USA) in 5% CO2 at 37° C. for three days before the binding assay.
To establish a stable cell line expressing cloned human NK1R, the cDNA was subcloned into the vector pRcCMV (INVITROGEN). Transfection of 20 ug of the plasmid DNA into CHO cells was achieved by electroporation in 800 μl of transfection buffer supplemented with 0.625 mg/ml Herring sperm DNA at 300 V and 950 μF using the IBI GENEZAPPER (IBI). The transfected cells were incubated in CHO media [10% fetal calf serum, 100 U/ml penicillin-streptomycin, 2 mM glutamine, 1/500 hypoxanthine-thymidine (ATCC), 90% IMDM media (JRH BIOSCIENCES, Lenexa, Kans., USA), 0.7 mg/ml G418 (GIBCO)] in 5% CO2 at 37° C. until colonies were visible. Each colony was separated and propagated. The cell clone with the highest number of human NK1R was selected for subsequent applications such as drug screening.
The binding assay of human NK1R expressed in either COS or CHO cells is based on the use of ^125 I-substance P (^125 I-SP, from DU PONT, Boston, Mass.) as a radioactively labeled ligand which competes with unlabeled substance P or any other ligand for binding to the human NK1R. Monolayer cell cultures of COS or CHO were dissociated by the non-enzymatic solution (SPECIALTY MEDIA, Lavellette, N.J.) and resuspended in appropriate volume of the binding buffer (50 mM Tris pH 7.5, 5 mM MnCl2, 150 mM NaCl, 0.04 mg/ml bacitracin, 0.004 mg/ml leupeptin, 0.2 mg/ml BSA, 0.01 mM phosphoramidon) such that 200 μl of the cell suspension would give rise to about 10,000 cpm of specific ^125 I-SP binding (approximately 50,000 to 200,000 cells). In the binding assay, 200 ul of cells were added to a tube containing 20 ul of 1.5 to 2.5 nM of ^125 I-SP and 20 μl of unlabeled substance P or any other test compound. The tubes were incubated at 4° C. or at room temperature for 1 hour with gentle shaking. The bound radioactivity was separated from unbound radioactivity by GF/C filter (BRANDEL, Gaithersburg, Md.) which was prewetted with 0.1% polyethylenimine. The filter was washed with 3 ml of wash buffer (50 mM Tris pH 7.5, 5 mM MnCl2, 150 mM NaCl) three times and its radioactivity was determined by gamma counter.

T1 sequence (P25103 whole entry): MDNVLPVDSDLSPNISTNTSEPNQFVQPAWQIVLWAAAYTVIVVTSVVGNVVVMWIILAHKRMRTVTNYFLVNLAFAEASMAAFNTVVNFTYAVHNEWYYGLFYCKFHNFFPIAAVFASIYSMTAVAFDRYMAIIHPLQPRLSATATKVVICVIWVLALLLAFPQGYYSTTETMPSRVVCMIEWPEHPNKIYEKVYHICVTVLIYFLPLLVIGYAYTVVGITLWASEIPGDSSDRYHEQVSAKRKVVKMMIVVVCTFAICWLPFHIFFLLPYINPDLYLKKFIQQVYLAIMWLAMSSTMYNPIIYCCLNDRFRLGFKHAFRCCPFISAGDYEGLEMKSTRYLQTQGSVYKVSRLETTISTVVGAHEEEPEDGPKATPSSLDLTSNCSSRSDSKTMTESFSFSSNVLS

Row | Structure (SMILES) | IC50 [nM]
1 | FC(F)(F)c1cc(COC2C3CCN(CC3)C2C(Cc2ccccc2)c2ccccc2)cc(C(F)(F)F)c1 (single isomer, unassigned) [2: ISOMER C] | > 100
2 | Cc1cc(C)cc(COC2C3CCN(CC3)C2C(Cc2ccccc2)c2ccccc2)c1 (single isomer, unassigned) [1: ISOMER C] | > 100
3 | COc1ccc(C(Cc2ccccc2)C2C(OCc3cc(C(F)(F)F)cc(C(F)(F)F)c3)C3CCN2CC3)cc1 (single isomer, unassigned) [3: ISOMER A] | 3
4 | FC(F)(F)c1cc(COC2C3CCN(CC3)C2C(Cc2ccccc2)c2ccccc2)cc(C(F)(F)F)c1 (single isomer, unassigned) [2: ISOMER B] | 6.3
5 | Cc1cc(C)cc(COC2C3CCN(CC3)C2C(Cc2ccccc2)c2ccccc2)c1 (single isomer, unassigned) [1: ISOMER A] | 2.4
6 | FC(F)(F)c1cc(COC2C3CCN(CC3)C2C(c2ccccc2)C2CCCCC2)cc(C(F)(F)F)c1 (stereo not drawn) [Example 5, 3-(3,5-Bis(trifluoromethyl)phenyl)methyloxy-2-(α-cyclohexylbenzyl)-1-azabicyclo[2.2.2]octane oxalate hemihydrate] | 3
7 | FC(F)(F)c1cc(COC2C3CCN(CC3)C2C(Cc2ccccc2)c2ccccc2)cc(C(F)(F)F)c1 (single isomer, unassigned) [2: ISOMER A] | 4.5
8 | Cc1cc(C)cc(COC2C3CCN(CC3)C2C(Cc2ccccc2)c2ccccc2)c1 (single isomer, unassigned) [1: ISOMER B] | 1.8
9 | COc1cccc(C(Cc2ccccc2)C2C(OCc3cc(C(F)(F)F)cc(C(F)(F)F)c3)C3CCN2CC3)c1 (single isomer, unassigned) [4: ISOMER B] | 1.8
10 | COc1cccc(C(Cc2ccccc2)C2C(OCc3cc(C(F)(F)F)cc(C(F)(F)F)c3)C3CCN2CC3)c1 (single isomer, unassigned) [4: ISOMER A] | 10
